The source of these data is US20260356830A1, “COMPOUNDS FOR MODULATING RET PROTEIN” (Bristol-Myers Squibb Company, priority 2022, published 2026).

The target in this test is T1, CCDC6-RET (Homo sapiens, UniProt P07949+Q16204+Q96SW2).
T1 construct: CCDC6 (natural N-terminal fusion partner, UniProt Q16204); endogenous in cells; host or cells: TPC-1 (parental, papillary thyroid carcinoma)
As to the kind of experiment: Cellular RET degradation, AlphaLISA, TPC-1 cell line. It counts as cell-based. The following applies: for Dmax: TPC1, human, 24 h, read-out: Cell Density TPC-1/CCDC6-RET Ymax %; for DC50: read-out: Cell Density TPC-1/CCDC6-RET DC50, half-maximal degradation concentration, TPC-1 (CCDC6-RET), 24 hrs. On the procedure:
Cellular RET degradation compound potency was determined using the bead-based luminescent amplification assay-AlphaLISA Surefire Ultra Detection Kit (Perkin-Elmer). The CCDC6-RET fusion expressing papillary thyroid carcinoma (TPC-1) cell line was selected for screening of potential degraders: Parental (TPC-1/CCDC6-RET). Cells were plated in 384 well culture plates (Greiner Bio-One) at 10,000 cells/well in 50 ul/well DMEM (Fisher Scientific) with 2% FBS serum (Gibco). […] Low normalization wells were media only and high normalization wells were cells treated with DMSO only. Treated cell plates were placed in an incubator at 37 °C and 5% CO2 for 24 hrs. At 24 hrs, cell media was removed by a FELIX automated liquid hander (Analytik Jena) and 25 ul of cell lysis buffer (provided in AlphaLisa kit) was added to each well. […] cell lysate were transferred into a 384-well microplate (Perkin Elmer) before addition of 2.5 ul AlphaLISA Acceptor Bead mix. The plates were sealed and kept at room temperature for 1 hr before addition of donor bead mixture. Donor bead addition was performed in the dark and incubated for >1 hr before AlphaLISA luminescence was measured on an Envision plate reader with an Alphascreen aperture at RT (excitation 680 nm, emission 615 nm). RET protein abundance (and therefore degradation) directly corresponds to luminescence intensity.
Intensities were normalized relative to the average values from 16 wells containing media alone (blank-low) and 16 wells containing cells +DMSO (high). % Degradation for each well was determined using the standard equation, where
DC50 (IC50) values for each compound tested are calculated by analyzing plots of % degradation versus compound concentration, and fitting to the standard 4-parameter logistic curve where,
DC50 values are calculated according to the relationship,
Compound replicates were performed in independent assays. Maximum degradation (YMax) was defined as the maximal % degradation value from the 4-parameter logistic equation, as previously described.
(Bead proximity is the source of the signal in Alpha formats.)

T1 sequence (Q16204+P07949 fused): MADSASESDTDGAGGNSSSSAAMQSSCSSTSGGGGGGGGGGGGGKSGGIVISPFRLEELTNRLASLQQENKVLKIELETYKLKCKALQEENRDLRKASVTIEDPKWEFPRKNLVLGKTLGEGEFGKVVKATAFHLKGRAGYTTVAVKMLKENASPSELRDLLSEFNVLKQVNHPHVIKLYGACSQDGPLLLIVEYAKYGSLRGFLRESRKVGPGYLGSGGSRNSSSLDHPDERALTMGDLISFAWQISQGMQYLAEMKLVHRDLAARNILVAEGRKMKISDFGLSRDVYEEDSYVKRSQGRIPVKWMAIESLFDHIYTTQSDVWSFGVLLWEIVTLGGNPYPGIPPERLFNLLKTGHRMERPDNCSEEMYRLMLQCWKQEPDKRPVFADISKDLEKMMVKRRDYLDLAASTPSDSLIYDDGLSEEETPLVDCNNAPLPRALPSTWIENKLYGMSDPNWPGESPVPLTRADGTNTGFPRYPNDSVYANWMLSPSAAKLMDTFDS
T1 sequence (Q96SW2 whole entry, the tested form may be a part): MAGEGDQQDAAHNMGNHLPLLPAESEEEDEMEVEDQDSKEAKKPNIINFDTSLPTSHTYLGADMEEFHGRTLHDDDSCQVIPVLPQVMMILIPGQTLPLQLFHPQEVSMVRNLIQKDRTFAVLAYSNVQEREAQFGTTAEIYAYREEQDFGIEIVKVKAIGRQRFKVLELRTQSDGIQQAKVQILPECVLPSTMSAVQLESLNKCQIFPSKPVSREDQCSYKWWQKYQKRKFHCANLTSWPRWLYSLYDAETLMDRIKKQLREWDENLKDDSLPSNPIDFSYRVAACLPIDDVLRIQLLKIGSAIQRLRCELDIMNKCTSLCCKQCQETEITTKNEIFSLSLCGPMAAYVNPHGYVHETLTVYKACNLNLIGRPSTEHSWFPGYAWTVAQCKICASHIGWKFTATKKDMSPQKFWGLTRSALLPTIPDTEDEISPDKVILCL
T1 sequence (Q16531 whole entry partner, the tested form may be a part): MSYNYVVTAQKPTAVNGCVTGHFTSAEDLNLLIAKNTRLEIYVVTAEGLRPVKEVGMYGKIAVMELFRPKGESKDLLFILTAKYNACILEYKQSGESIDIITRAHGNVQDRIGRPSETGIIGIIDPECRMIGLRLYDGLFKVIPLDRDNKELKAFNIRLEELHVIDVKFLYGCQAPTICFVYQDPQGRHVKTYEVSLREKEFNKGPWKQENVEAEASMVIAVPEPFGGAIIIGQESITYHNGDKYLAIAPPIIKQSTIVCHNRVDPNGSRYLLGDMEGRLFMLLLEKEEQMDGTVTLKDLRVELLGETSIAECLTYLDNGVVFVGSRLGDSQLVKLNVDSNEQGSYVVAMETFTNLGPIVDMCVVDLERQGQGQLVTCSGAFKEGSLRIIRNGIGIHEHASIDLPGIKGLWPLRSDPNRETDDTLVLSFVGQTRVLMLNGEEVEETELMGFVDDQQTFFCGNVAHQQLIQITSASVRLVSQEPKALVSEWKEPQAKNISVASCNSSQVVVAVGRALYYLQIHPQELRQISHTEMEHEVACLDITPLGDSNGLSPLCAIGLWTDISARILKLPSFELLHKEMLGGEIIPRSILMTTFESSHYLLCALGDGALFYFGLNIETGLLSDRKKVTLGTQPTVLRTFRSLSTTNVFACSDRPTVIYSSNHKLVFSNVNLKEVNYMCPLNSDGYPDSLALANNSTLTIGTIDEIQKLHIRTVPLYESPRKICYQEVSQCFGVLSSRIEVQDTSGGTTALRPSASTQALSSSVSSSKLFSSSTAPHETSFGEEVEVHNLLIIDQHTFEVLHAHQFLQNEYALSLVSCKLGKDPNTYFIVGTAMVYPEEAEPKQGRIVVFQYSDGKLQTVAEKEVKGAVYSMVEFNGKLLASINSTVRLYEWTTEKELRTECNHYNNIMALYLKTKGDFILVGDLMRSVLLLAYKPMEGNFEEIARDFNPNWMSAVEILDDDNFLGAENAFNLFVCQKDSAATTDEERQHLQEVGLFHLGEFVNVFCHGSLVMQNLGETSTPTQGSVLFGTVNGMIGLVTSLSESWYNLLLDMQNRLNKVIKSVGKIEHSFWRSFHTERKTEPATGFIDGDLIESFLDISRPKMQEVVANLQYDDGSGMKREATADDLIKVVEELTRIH

As for `CCOc1cc(-c2ccc(N3CCC(CN4CCN(CCOCCOCCC(=O)N5CCN(c6ccc7c(c6)CN(C6CCC(=O)NC6=O)C7=O)CC5)CC4)(NC(=O)c4cc(F)ccc4F)CC3)nc2)c2c(C#N)cnn2c1` (stereo not shown) [Example 109, N-[1-(5-{3-cyano-6-ethoxypyrazolo[1,5-a]pyridin-4-yl}pyridin-2-yl)-4-[(4-{2-[2-(3-{4-[2-(2,6-dioxopiperidin-3-yl)-1-oxo-2,3-dihydro-1H-isoindol-5-yl]piperazin-1-yl}-3-oxopropoxy)ethoxy]ethyl}piperazin-1-yl)methyl]piperidin-4-yl]-2,5-difluorobenzamide], the Dmax lay within 60 to 90% and the DC50 lay within 10 to 100 nM.

Consider `CCOc1cc(-c2ccc(N3CCC(Cc4ccccc4)(NC(=O)CC4CCN(C(=O)CCN5CCC(c6ccc7c(c6)C(=O)N(C6CCC(=O)NC6=O)C7)CC5)CC4)CC3)nc2)c2c(C#N)cnn2c1` (stereo not shown) [Example 54, N-[4-benzyl-1-[5-(3-cyano-6-ethoxy-pyrazolo[1,5-a]pyridin-4-yl)-2-pyridyl]-4-piperidyl]-2-[1-[3-[4-[2-(2,6-dioxo-3-piperidyl)-3-oxo-isoindolin-5-yl]-1-piperidyl]propanoyl]-4-piperidyl]acetamide], for which the Dmax is 60 to 90% and the DC50 lay in the range of 100 to 2000 nM.

As to `CCOc1cc(-c2ccc(N3CCC(CN(C(=O)CCCCCCN4CCN(c5ccc6c(c5)C(=O)N(C5CCC(=O)NC5=O)C6)CC4)C(C)C)(NC(=O)c4cc(F)ccc4F)CC3)nc2)c2c(C#N)cnn2c1` (stereo not shown) [Example 169, N-[1-(5-{3-cyano-6-ethoxypyrazolo[1,5-a]pyridin-4-yl}pyridin-2-yl)-4-[(7-{4-[2-(2,6-dioxopiperidin-3-yl)-3-oxo-2,3-dihydro-1H-isoindol-5-yl]piperazin-1-yl}-N-(propan-2-yl)heptanamido)methyl]piperidin-4-yl]-2,5-difluorobenzamide], the Dmax was in the range of 60 to 90% and the DC50 was in the range of 10 to 100 nM.

Consider `CCOc1cc(-c2ccc(N3CCC(CN4CCN(C(=O)CCN5CCC(Oc6ccc7c(c6)CN(C6CCC(=O)NC6=O)C7=O)CC5)CC4)(NC(=O)c4cc(F)ccc4F)CC3)nc2)c2c(C#N)cnn2c1` (stereo not shown) [Example 118, N-[1-(5-{3-cyano-6-ethoxypyrazolo[1,5-a]pyridin-4-yl}pyridin-2-yl)-4-({4-[3-(4-{[2-(2,6-dioxopiperidin-3-yl)-1-oxo-2,3-dihydro-1H-isoindol-5-yl]oxy}piperidin-1-yl)propanoyl]piperazin-1-yl}methyl)piperidin-4-yl]-2,5-difluorobenzamide], for which the Dmax is 60 to 90% and the DC50 lay in the range of 2 to 10 nM.

In the case of `CCOc1cc(-c2ccc(N3CCC(CN4CCN(CCOCCC(=O)N5CCN(c6ccc7c(c6)C(=O)N(C6CCC(=O)NC6=O)C7)CC5)CC4)(NC(=O)c4cc(F)ccc4F)CC3)nc2)c2c(C#N)cnn2c1` (stereo not shown) [Example 103, N-[1-(5-{3-cyano-6-ethoxypyrazolo[1,5-a]pyridin-4-yl}pyridin-2-yl)-4-({4-[2-(3-{4-[2-(2,6-dioxopiperidin-3-yl)-3-oxo-2,3-dihydro-1H-isoindol-5-yl]piperazin-1-yl}-3-oxopropoxy)ethyl]piperazin-1-yl}methyl)piperidin-4-yl]-2,5-difluorobenzamide], the Dmax was greater than 90% and the DC50 fell in the range of 10 to 100 nM.

On to `CCOc1cc(-c2ccc(N3CCC(CN4CCN(C(=O)CCCCCCCCCCCCCCNC(=O)COc5cccc6c5CN(C5CCC(=O)NC5=O)C6=O)CC4)(NC(=O)c4cc(F)ccc4F)CC3)nc2)c2c(C#N)cnn2c1` (stereo not shown) [Example 30, N-[1-(5-{3-cyano-6-ethoxypyrazolo[1,5-a]pyridin-4-yl}pyridin-2-yl)-4-({4-[15-(2-{[2-(2,6-dioxopiperidin-3-yl)-1-oxo-2,3-dihydro-1H-isoindol-4-yl]oxy}acetamido)pentadecanoyl]piperazin-1-yl}methyl)piperidin-4-yl]-2,5-difluorobenzamide], for which the Dmax was in the range of 60 to 90% and the DC50 fell in the range of 100 to 2000 nM.

In the case of `CCOc1cc(-c2ccc(N3CCC(CN4CCN(C(=O)CCCCCCCCNc5cccc(NC6CCC(=O)NC6=O)c5)CC4)(NC(=O)c4cc(F)ccc4F)CC3)nc2)c2c(C#N)cnn2c1` (stereo not shown) [Example 23, N-[1-(5-{3-cyano-6-ethoxypyrazolo[1,5-a]pyridin-4-yl}pyridin-2-yl)-4-({4-[9-({3-[(2,6-dioxopiperidin-3-yl)amino]phenyl}amino)nonanoyl]piperazin-1-yl}methyl)piperidin-4-yl]-2,5-difluorobenzamide], the Dmax is greater than 90% and the DC50 fell in the range of 10 to 100 nM.

With `CCOc1cc(-c2ccc(N3CCC(COCC(=O)NCCCCCCN4CCN(c5ccc6c(c5)CN(C5CCC(=O)NC5=O)C6=O)CC4)(NC(=O)c4cc(F)ccc4F)CC3)nc2)c2c(C#N)cnn2c1` (stereo not shown) [Example 38, N-[1-[5-(3-cyano-6-ethoxy-pyrazolo[1,5-a]pyridin-4-yl)-2-pyridyl]-4-[[2-[6-[4-[2-(2,6-dioxo-3-piperidyl)-1-oxo-isoindolin-5-yl]piperazin-1-yl]hexylamino]-2-oxo-ethoxy]methyl]-4-piperidyl]-2,5-difluoro-benzamide], the Dmax is greater than 90% and the DC50 was less than 2 nM.

Regarding `CCOc1cc(-c2ccc(N3CCC(CN4CCN(CCOCCOCCC(=O)Nc5ccc6c(N7CCC(=O)NC7=O)nn(C)c6c5)CC4)(NC(=O)c4cc(F)ccc4F)CC3)nc2)c2c(C#N)cnn2c1` [Example 108, N-[1-(5-{3-cyano-6-ethoxypyrazolo[1,5-a]pyridin-4-yl}pyridin-2-yl)-4-[(4-{2-[2-(2-{[3-(2,4-dioxo-1,3-diazinan-1-yl)-1-methyl-1H-indazol-6-yl]carbamoyl}ethoxy)ethoxy]ethyl}piperazin-1-yl)methyl]piperidin-4-yl]-2,5-difluorobenzamide], the Dmax is 60 to 90% and the DC50 fell in the range of 10 to 100 nM.

Turning to `CCOc1cc(-c2ccc(N3CCC(CN(C(=O)CCCCCCN4CCN(c5ccc6c(c5)CN(C5CCC(=O)NC5=O)C6=O)CC4)C(C)C)(NC(=O)c4cc(F)ccc4F)CC3)nc2)c2c(C#N)cnn2c1` (stereo not shown) [Example 165, N-[1-(5-{3-cyano-6-ethoxypyrazolo[1,5-a]pyridin-4-yl}pyridin-2-yl)-4-[(7-{4-[2-(2,6-dioxopiperidin-3-yl)-1-oxo-2,3-dihydro-1H-isoindol-5-yl]piperazin-1-yl}-N-(propan-2-yl)heptanamido)methyl]piperidin-4-yl]-2,5-difluorobenzamide], the Dmax is greater than 90% and the DC50 is less than 2 nM.

Consider `CCOc1cc(-c2ccc(N3CCC(CN4CCN(C(=O)CCCCN5CCN(c6ccc7c(c6)CN(C6CCC(=O)NC6=O)C7=O)CC5)CC4)(NC(=O)c4cc(F)ccc4F)CC3)nc2)c2c(C#N)cnn2c1` (stereo not shown) [Example 5, N-(1-(5-(3-cyano-6-ethoxypyrazolo[1,5-a]pyridin-4-yl)pyridin-2-yl)-4-((4-(5-(4-(2-(2,6-dioxopiperidin-3-yl)-1-oxoisoindolin-5-yl)piperazin-1-yl)pentanoyl)piperazin-1-yl)methyl)piperidin-4-yl)-2,5-difluorobenzamide], for which the Dmax was greater than 90% and the DC50 is 2 to 10 nM.

Turning to `CCOc1cc(-c2ccc(N3CCC(CN4CCC5(CCC(CC(=O)N6CCN(c7ccc8c(c7)C(=O)N(C7CCC(=O)NC7=O)C8)CC6)CC5)CC4)(NC(=O)c4cc(F)ccc4F)CC3)nc2)c2c(C#N)cnn2c1` (stereo not shown) [Example 123, N-[1-(5-{3-cyano-6-ethoxypyrazolo[1,5-a]pyridin-4-yl}pyridin-2-yl)-4-{[9-(2-{4-[2-(2,6-dioxopiperidin-3-yl)-3-oxo-2,3-dihydro-1H-isoindol-5-yl]piperazin-1-yl}-2-oxoethyl)-3-azaspiro[5.5]undecan-3-yl]methyl}piperidin-4-yl]-2,5-difluorobenzamide], the Dmax is greater than 90% and the DC50 is 2 to 10 nM.

With `CCOc1cc(-c2ccc(N3CCC(CN4CCN(C(=O)CCCCCCNc5ccc(C6CCC(=O)NC6=O)cc5)CC4)(NC(=O)c4cc(F)ccc4F)CC3)nc2)c2c(C#N)cnn2c1` (stereo not shown) [Example 20, N-[1-(5-{3-cyano-6-ethoxypyrazolo[1,5-a]pyridin-4-yl}pyridin-2-yl)-4-{[4-(7-{[4-(2,6-dioxopiperidin-3-yl)phenyl]amino}heptanoyl)piperazin-1-yl]methyl}piperidin-4-yl]-2,5-difluorobenzamide], the Dmax is greater than 90% and the DC50 was 2 to 10 nM.

`CCOc1cc(-c2ccc(N3CCC(CN(C)C(=O)CCCCCCN4CCN(c5ccc6c(c5)CN(C5CCC(=O)NC5=O)C6=O)CC4)(NC(=O)c4cc(F)ccc4F)CC3)nc2)c2c(C#N)cnn2c1` (stereo not shown) [Example 137, N-[1-(5-{3-cyano-6-ethoxypyrazolo[1,5-a]pyridin-4-yl}pyridin-2-yl)-4-[(7-{4-[2-(2,6-dioxopiperidin-3-yl)-1-oxo-2,3-dihydro-1H-isoindol-5-yl]piperazin-1-yl}-N-methylheptanamido)methyl]piperidin-4-yl]-2,5-difluorobenzamide]: the Dmax is greater than 90% and the DC50 is 2 to 10 nM.
